Patent US20240409538A1, “SUBSTITUTED TRIAZOLOHETEROARYL COMPOUNDS AS USP1 INHIBITORS AND THE USE THEREOF” (IMPACT THERAPEUTICS (SHANGHAI), INC., priority 2021, published 2024)

Experiments:
[1] = tested on: BRCA mutant human breast cancer MDA-MB-436 cell line; test: Growth inhibition of MDA-MB-436 cells, CTG (Celltiter-Glo) method; assay type: cell-based; settings: MDA-MB-436, 168 h, 7 days incubation, read-out: IC50 (nM), inhibition of proliferation of MDA-MB-436 cells, CTG method
Method: (§1) The cells were cultured in complete medium (DMEM medium+10% FBS+Insulin+glutathione). When the confluence reached about 80%, cells were digested and gently dispensed from the bottom of the dish with a 1 mL pipette. Cell suspension was collected and centrifuged at 500 rpm for 3 min. The supernatant was discarded, and the cell pellet were re-suspended in complete medium. The cells were seeded into a culture dish at an appropriate proportion, and then cultured in a 5% CO2 incubator at 37° C. The assay was carried out when the cells were in optimum condition and the confluence was reached 80%. Cells in the logarithmic growth phase were taken to centrifugate, and the culture supernatant was removed. The cells were resuspended in refresh complete medium and counted. The resuspended cells were seeded at 3000/well in a 96-well plate and incubated at 37° C., 5% CO2 incubator overnight. The compound was prepared as below: 1000× dilution tested compound solution to 40× test compound solution by adding 5 μL 1000× compound solution to 120 μL Medium (25-fold dilution). The solution was mixed by oscillation, 0.1% DMSO was used as the control.
(§2) The next day, the 96-well plate inoculated with cells was taken out from the incubator, and the culture supernatant was removed. Then fresh medium of 195 uL/well and 5 μL/well of 40× test compound solution as mentioned above were added into the 96 well plate, respectively. Finally, the plate was incubated for 7 days in a 37° C. 5% CO2 incubator. The medium containing compound was changed on the fourth day.
CTG Method: After 7 days, 100 μL Celltiter-Glo reagent was added to each well, and then the plate was shake for 2 minutes to fully lysate. Then the plate was incubated at room temperature for 10 minutes, and the chemiluminescence values were read by plate reader.
The inhibitory activity of compounds on cell proliferation was plotted using cell survival rate against the compound concentration as coordinates. Cell inhibition rate %=(Lumcompound−LumDMSO)/(Lummedium−LumDMSO)×100. Lum refers to the chemiluminescence value.
XL Fit software was used to Fit nonlinear s-curve regression to Fit the data to obtain dose-effect curves, from which IC50 values were calculated. Y=Bottom+(Top−Bottom)/(1+10^((Log IC50−X)×slope)), Where Y is the cell inhibition rate, X is the compound concentration, Bottom is the lowest inhibition rate. Top is the highest inhibition rate.
Table 2 summarizes the inhibitory effect data (IC50) of the compounds on the proliferation of human breast cancer cells MDA-MB-436 determined by CTG method.

[2] = tested on: BRCA mutant human breast cancer MDA-MB-436 cell line; test: Growth inhibition of MDA-MB-436 cells, CCK-8 method; assay type: cell-based; settings: MDA-MB-436, 168 h, 7 days incubation, read-out: IC50 (nM), inhibition of proliferation of MDA-MB-436 cells, CCK-8 method
Method: as §1, §2
CCK Method: After 7 days, 20 μL of CCK-8 was added to each well and shaken gently, then was cultured for 4 hours. The plate was shaken for 5 min after incubation, the absorbance values of 450 nm or 650 nm wavelengths were recorded respectively (OD=absorbance value of 450 nm−absorbance value of 650 nm) by using the multifunction readout instrument.
Data were analyzed by software GraphPad Prism 6.0. The inhibitory activity of compounds on cell proliferation was plotted using cell survival rate against the compound concentration as coordinates. Cell survival rate %=(ODcompound−ODbackground)/(ODDMSO−ODbackground)×100. The IC50 value was fitted by the s-shaped dose response curve equation: Y=100/(1+10^(log C−log IC50)), and C was the compound concentration.
Table 3 summarizes the inhibitory effect data (IC50) of the compounds on the proliferation of human breast cancer cells MDA-MB-436 determined by CCK-8 method.

USP1/UAF1 = USP1/UAF1 (Homo sapiens (Human), UniProt O94782); test: USP1/UAF1 activity, ubiquitin-rhodamine110-glycine (Ub-Rho) assay; assay type: biochemical; settings: 0.1 nM USP1/UAF1, 100 nM Ub-Rho, 120 minutes; read-out: IC50 (nM), inhibitory effects on USP1/UAF1 activity
Chain of USP1/UAF1 (O94782 whole entry): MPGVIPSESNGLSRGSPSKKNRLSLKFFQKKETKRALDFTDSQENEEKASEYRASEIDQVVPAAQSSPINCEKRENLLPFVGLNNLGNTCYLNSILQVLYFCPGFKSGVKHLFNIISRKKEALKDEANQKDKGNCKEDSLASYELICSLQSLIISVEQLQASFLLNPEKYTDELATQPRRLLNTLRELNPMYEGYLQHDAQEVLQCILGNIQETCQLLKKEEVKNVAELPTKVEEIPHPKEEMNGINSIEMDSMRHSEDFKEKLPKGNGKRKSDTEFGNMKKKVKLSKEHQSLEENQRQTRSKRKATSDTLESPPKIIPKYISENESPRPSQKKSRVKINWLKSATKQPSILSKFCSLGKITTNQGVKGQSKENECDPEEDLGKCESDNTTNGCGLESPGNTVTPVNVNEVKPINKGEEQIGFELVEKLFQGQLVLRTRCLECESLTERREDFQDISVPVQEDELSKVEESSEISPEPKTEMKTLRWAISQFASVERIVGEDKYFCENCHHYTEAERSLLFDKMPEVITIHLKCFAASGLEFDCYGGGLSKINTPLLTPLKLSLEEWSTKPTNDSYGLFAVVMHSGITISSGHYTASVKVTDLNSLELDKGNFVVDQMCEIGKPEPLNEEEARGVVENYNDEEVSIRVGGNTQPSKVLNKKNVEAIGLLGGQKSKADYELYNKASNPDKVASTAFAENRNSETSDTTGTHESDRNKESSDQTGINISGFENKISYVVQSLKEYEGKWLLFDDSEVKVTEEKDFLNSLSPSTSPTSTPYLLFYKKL
Chain of USP1/UAF1 (Q8TAF3 whole entry partner): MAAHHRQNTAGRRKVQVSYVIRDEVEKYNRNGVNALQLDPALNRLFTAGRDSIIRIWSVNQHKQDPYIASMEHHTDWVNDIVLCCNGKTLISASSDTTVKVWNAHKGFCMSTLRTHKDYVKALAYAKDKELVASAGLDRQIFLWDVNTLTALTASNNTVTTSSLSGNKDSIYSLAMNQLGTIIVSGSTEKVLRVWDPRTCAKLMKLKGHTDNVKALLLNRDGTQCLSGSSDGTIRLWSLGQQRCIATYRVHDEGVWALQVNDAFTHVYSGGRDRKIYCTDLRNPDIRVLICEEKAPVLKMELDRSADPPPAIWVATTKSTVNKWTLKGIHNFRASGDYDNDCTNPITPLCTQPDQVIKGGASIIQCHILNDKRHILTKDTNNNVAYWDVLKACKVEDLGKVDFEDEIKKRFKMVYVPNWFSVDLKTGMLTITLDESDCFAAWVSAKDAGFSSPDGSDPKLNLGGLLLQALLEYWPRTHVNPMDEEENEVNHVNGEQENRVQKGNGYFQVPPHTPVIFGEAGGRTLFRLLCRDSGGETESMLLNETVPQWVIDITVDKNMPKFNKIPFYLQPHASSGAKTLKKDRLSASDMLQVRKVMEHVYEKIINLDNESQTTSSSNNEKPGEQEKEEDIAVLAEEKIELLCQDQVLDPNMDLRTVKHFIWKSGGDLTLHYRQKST
Method: USP1/UAF1 activity was determined by using ubiquitin-rhodamine110-glycine (Ub-Rho; Boston Biochem) assay. Enzymatic reactions were conducted in an assay buffer (50 mM Tris-HCl, pH 7.8, 0.5 mM EDTA, 100 mM NaCl, 1 mM DTT, 0.01 BSA, and 0.01% Tween-20) that contained 0.1 nM USP1/UAF1. Each individual compound was tested at ten concentrations in the range of 0.0005 to 10 μM. The plates were incubated for 15 min to attain equilibrium, and then the enzymatic reaction was initiated by dispensing 10 μL of Ub-Rho solution (100 nM final concentration). After treating 120 minutes with Ub-Rho solution, the rhodamine fluorescence was acquired using a 480 nm excitation/540 nm emission filter set by using Envision instrument. The inhibition rate of the compound to USP1/UAF1 enzyme activity was calculated according to the following formula.
IC50 value is obtained by fitting the s-shaped dose response curve equation by using XL Fit software. The curve equation is Y=100/(1+10^(log C−log IC50)). C is the compound concentration.

| SMILES | IC50 [1] [nM] | IC50 [2] [nM] | IC50 (USP1/UAF1) [nM] |
| --- | --- | --- | --- |
| CC(C)c1ccccc1-c1nc2c(Cc3ccc(-c4nc(C(F)(F)F)cn4C)cc3)cccn2n1 [Example 3, 2-(2-isopropylphenyl)-8-(4-(1-methyl-4-(trifluoromethyl)-1H-imidazol-2-yl)benzyl)-[1,2,4]triazolo[1,5-a]pyridine] | 57.6 | 111 |  |
| COc1ncnc(C2CC2)c1-c1nc2ccnc(Cc3ccc(-c4nc(C(F)(F)F)cn4C4CC4)cc3)n2n1 [Example 40, 5-(4-(1-cyclopropyl-4-(trifluoromethyl)-1H-imidazol-2-yl)benzyl)-2-(4-cyclopropyl-6-methoxypyrimidin-5-yl)-[1,2,4]triazolo[1,5-c]pyrimidine] | 21.1 |  | 19.9 |
| COc1ncnc(C2CC2)c1-c1nc2ccnc(Cc3ccc(-c4nc(C(F)(F)F)cn4C)c(F)c3)n2n1 [Example 41, 2-(4-cyclopropyl-6-methoxypyrimidin-5-yl)-5-(3-fluoro-4-(1-methyl-4-(trifluoromethyl)-1H-imidazol-2-yl)benzyl)-[1,2,4]triazolo[1,5-c]pyrimidine] | 55.3 |  | 34.2 |

Now from value to molecule:

| IC50 [1] [nM] | IC50 [2] [nM] | IC50 (USP1/UAF1) [nM] | SMILES |
| --- | --- | --- | --- |
| 21.6 | 26.4 | 30.6 | COc1ncnc(C2CC2)c1-c1nc2cccc(Cc3ccc(-c4nc(C(F)(F)F)cn4C)cc3)n2n1 [Example 14, 2-(4-cyclopropyl-6-methoxypyrimidin-5-yl)-5-(4-(1-methyl-4-(trifluoromethyl)-1H-imidazol-2-yl)benzyl)-[1,2,4]triazolo[1,5-a]pyridine] |
| 227 |  | 147 | COc1ncnc(C2CC2)c1-c1nc2cncc(Cc3ccc(-c4nc(C(F)(F)F)cn4C)cc3)n2n1 [Example 22, 2-(4-cyclopropyl-6-methoxypyrimidin-5-yl)-5-(4-(1-methyl-4-(trifluoromethyl)-1H-imidazol-2-yl)benzyl)-[1,2,4]triazolo[1,5-a]pyrazine] |
| 496 |  | 175 | COc1ncnc(C2CC2)c1-c1nc2nccc(Cc3ccc(-c4nc(C(F)(F)F)cn4C)cc3)n2n1 [Example 23, 2-(4-cyclopropyl-6-methoxypyrimidin-5-yl)-7-(4-(1-methyl-4-(trifluoromethyl)-1H-imidazol-2-yl)benzyl)-[1,2,4]triazolo[1,5-a]pyrimidine] |
| 40.6 |  | 26 | COc1ncnc(C2CCC2)c1-c1nc2c(Cc3ccc(-c4nc(C(F)(F)F)cn4C)cc3)cccn2n1 [Example 28, 2-(4-cyclobutyl-6-methoxypyrimidin-5-yl)-8-(4-(1-methyl-4-(trifluoromethyl)-1H-imidazol-2-yl)benzyl)-[1,2,4]triazolo[1,5-a]pyridine] |
